Assay results taken from ChEMBL document CHEMBL1134895, “Synthesis and dopamine transporter binding affinities of 3alpha-benzyl-8-(diarylmethoxyethyl)-8-azabicyclo[3.2.1]octanes” (Bioorg Med Chem Lett, 2002).

Molecular target: Sodium-dependent dopamine transporter (Rattus norvegicus, UniProt P23977)
Experiment: Displacement of [3H]WIN-35428 from dopamine transporter of rat caudate putamen tissue
Type: tissue-based

Chain of Sodium-dependent dopamine transporter (P23977 whole entry): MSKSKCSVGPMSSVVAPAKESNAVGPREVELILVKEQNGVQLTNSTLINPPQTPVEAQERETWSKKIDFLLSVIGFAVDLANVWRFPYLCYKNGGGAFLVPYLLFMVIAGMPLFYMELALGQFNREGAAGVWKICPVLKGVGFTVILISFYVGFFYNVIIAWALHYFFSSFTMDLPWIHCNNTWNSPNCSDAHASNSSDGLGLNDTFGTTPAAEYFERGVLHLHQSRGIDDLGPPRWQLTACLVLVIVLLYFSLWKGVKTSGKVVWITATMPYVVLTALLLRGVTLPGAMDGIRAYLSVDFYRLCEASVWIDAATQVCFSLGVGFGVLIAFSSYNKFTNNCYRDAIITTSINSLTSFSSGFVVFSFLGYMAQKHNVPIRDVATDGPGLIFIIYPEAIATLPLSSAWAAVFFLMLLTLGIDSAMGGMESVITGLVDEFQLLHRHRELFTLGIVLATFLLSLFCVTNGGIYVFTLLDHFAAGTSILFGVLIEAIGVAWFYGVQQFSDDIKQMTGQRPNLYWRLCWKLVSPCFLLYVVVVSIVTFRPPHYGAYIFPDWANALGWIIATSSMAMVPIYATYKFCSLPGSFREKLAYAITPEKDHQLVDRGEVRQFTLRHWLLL

SMILES | Ki
c1ccc(CN2C3CCC2CC(CCOC(c2ccccc2)c2ccccc2)C3)cc1 (centres undefined) | 99 nM
c1ccc(CC2CC3CCC(C2)N3CCOC(c2ccccc2)c2ccccc2)cc1 (centres undefined) | 98 nM
Fc1ccc(C(OCCN2C3CCC2CC(Cc2ccccc2)C3)c2ccc(F)cc2)cc1 (centres undefined) | 144 nM
Cc1ccc(C(OCCN2C3CCC2CC(Cc2ccccc2)C3)c2ccc(C)cc2)cc1 (centres undefined) | 217 nM
Fc1ccc(C(OCCC2CCN(CCCc3ccccc3)CC2)c2ccc(F)cc2)cc1 | 25 nM
COc1ccc(C(OCCN2C3CCC2CC(Cc2ccccc2)C3)c2ccc(OC)cc2)cc1 (centres undefined) | 135 nM
Clc1ccc(C(OCCN2C3CCC2CC(Cc2ccccc2)C3)c2ccccc2)cc1 (centres undefined) | 198 nM
Clc1ccc(C(OCCN2C3CCC2CC(Cc2ccccc2)C3)c2ccc(Cl)cc2)cc1 (centres undefined) | 346 nM
Fc1ccc(C(OCCN2CCC(CCCc3ccccc3)CC2)c2ccc(F)cc2)cc1 | 595 nM
